This note sets out measurements from ChEMBL document CHEMBL5303765, “Data for DCP probe BAY-7081” (2023).

For assay [1], the target named is T1, Muscarinic acetylcholine receptor M4 (Homo sapiens) (UniProt P08173).
T1 sequence (whole entry): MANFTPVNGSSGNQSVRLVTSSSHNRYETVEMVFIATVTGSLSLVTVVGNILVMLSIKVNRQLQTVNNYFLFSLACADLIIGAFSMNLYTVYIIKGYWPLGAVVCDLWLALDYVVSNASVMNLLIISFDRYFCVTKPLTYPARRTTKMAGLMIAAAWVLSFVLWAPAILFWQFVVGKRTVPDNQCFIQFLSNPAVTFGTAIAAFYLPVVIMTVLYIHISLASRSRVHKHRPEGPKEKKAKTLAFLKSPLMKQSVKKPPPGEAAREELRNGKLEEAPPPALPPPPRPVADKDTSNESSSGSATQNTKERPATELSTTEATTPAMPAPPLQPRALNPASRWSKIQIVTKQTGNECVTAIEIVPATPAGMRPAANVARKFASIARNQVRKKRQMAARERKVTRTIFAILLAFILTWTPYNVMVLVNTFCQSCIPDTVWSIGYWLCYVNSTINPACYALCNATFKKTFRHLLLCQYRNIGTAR
As to conditions: Compound concentration 10.0 uM.

In assay [2] the target is T2, Serine/threonine-protein kinase DCLK1 (Homo sapiens) (UniProt O15075).
T2 sequence (whole entry): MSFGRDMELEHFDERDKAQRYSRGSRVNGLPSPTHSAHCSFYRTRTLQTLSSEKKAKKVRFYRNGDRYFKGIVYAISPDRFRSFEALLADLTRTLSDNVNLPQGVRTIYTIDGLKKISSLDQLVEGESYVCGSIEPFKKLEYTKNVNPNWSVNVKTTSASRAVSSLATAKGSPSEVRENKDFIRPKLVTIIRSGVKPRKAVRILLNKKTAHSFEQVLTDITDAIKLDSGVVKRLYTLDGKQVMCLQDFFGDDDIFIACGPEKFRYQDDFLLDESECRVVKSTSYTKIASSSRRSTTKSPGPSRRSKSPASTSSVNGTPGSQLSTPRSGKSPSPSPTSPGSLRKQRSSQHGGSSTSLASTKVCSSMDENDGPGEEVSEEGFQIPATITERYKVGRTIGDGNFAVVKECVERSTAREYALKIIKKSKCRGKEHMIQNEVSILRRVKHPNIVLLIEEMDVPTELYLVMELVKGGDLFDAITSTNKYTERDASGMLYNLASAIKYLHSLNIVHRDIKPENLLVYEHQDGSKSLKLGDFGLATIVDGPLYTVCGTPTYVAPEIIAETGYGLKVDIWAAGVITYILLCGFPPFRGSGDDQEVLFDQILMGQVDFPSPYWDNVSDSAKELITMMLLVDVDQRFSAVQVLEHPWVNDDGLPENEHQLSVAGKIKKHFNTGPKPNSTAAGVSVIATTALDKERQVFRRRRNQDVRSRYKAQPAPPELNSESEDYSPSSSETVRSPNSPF
The experiment in a line: DCAMKL1 SGC Tm panel (DSF). As to conditions: for ΔTm: Compound concentration 10.0 uM.

The target of assay [3] is Serine/threonine-protein kinase 24 (Homo sapiens) (UniProt Q9Y6E0). The experiment in a line: MST3 SGC Tm panel (DSF). The conditions noted are these: for ΔTm: Compound concentration 10.0 uM.
The target in assay [4] is Serine/threonine-protein kinase OSR1 (Homo sapiens) (UniProt O95747). The experiment in a line: OSR1 SGC Tm panel (DSF). The conditions noted are these: for ΔTm: Compound concentration 10.0 uM.
Assay [5] addresses Dual specificity mitogen-activated protein kinase kinase 1 (Homo sapiens) (UniProt Q02750). As to the kind of experiment: MAP2K1 SGC Tm panel (DSF). The conditions noted are these: for ΔTm: Compound concentration 10.0 uM.
For assay [6], the target named is Ephrin type-A receptor 4 (Homo sapiens) (UniProt P54764). The experiment in a line: EPHA4 SGC Tm panel (DSF). As to conditions: for ΔTm: Compound concentration 10.0 uM.
Assay [7] addresses Serine/threonine-protein kinase pim-1 (Homo sapiens) (UniProt P11309). As to the kind of experiment: PIM1 SGC Tm panel (DSF). The conditions noted are these: for ΔTm: Compound concentration 10.0 uM.
Assay [8] concerns the target Casein kinase I isoform epsilon (Homo sapiens) (UniProt P49674). As to the kind of experiment: CSNK1E SGC Tm panel (DSF). As to conditions: for ΔTm: Compound concentration 10.0 uM.
For assay [9], the target named is T3, Cyclin-G-associated kinase (Homo sapiens) (UniProt O14976).
T3 sequence (whole entry): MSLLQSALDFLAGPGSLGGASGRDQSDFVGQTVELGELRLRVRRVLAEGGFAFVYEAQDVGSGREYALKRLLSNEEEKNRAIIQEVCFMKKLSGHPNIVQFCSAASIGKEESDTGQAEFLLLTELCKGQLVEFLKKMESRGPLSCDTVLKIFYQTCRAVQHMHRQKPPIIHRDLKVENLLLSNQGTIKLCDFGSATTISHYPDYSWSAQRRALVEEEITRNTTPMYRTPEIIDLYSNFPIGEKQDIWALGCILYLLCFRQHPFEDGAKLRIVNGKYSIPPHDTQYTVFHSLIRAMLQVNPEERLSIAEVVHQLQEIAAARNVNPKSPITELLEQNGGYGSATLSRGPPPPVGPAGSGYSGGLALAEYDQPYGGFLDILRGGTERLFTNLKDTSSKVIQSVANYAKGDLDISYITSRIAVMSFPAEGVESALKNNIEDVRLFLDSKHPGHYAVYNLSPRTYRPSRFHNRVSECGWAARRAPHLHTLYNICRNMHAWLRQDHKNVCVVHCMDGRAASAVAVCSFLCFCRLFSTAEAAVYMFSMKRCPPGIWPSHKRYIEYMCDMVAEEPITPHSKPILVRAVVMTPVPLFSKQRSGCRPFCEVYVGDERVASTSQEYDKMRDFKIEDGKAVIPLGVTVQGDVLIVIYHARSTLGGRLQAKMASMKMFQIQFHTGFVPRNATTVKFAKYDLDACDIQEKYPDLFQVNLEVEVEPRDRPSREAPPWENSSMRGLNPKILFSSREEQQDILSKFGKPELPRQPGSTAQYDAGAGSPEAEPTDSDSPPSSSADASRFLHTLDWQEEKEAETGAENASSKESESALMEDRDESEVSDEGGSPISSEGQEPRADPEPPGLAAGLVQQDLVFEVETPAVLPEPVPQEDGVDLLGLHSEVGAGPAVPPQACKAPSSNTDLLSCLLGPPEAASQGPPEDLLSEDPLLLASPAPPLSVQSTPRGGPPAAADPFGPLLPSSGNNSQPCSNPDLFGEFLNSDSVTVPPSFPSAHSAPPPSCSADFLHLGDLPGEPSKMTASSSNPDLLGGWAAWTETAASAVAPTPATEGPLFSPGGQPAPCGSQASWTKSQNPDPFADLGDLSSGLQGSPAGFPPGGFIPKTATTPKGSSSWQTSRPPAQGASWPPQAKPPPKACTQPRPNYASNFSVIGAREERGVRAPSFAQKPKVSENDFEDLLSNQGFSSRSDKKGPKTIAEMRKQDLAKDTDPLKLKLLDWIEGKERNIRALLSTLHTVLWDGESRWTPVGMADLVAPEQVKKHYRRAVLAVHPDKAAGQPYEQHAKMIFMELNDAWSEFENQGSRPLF
As to the kind of experiment: GAK SGC Tm panel (DSF). As to conditions: for ΔTm: Compound concentration 10.0 uM.

Ephrin type-A receptor 4 (Homo sapiens), sequence (P54764 whole entry): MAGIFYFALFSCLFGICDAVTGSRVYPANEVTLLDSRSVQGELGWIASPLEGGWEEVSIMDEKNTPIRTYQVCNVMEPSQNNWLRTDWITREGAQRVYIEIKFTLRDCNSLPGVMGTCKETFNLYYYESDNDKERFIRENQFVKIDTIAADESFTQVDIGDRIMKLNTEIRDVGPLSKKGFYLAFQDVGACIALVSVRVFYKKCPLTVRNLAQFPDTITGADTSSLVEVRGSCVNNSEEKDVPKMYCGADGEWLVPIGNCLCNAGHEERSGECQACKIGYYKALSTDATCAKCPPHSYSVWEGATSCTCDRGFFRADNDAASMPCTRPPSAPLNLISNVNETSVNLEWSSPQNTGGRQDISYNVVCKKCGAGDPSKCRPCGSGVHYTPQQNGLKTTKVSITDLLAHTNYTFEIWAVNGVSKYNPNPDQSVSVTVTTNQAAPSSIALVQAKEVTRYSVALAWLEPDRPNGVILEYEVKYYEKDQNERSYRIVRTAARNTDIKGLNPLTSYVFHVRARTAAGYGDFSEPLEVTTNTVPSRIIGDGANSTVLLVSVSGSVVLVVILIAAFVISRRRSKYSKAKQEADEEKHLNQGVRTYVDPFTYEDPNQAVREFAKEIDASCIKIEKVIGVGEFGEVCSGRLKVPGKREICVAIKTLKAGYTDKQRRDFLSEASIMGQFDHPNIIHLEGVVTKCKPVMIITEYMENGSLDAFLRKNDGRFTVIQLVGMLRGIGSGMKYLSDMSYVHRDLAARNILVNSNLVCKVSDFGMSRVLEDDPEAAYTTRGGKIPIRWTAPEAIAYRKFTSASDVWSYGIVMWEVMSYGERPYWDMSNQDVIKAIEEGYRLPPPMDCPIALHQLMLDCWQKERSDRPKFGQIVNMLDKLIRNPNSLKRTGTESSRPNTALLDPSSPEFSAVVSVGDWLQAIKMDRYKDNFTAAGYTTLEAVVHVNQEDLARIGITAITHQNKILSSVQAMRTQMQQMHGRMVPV
Serine/threonine-protein kinase OSR1 (Homo sapiens), sequence (O95747 2-527 limits assumed): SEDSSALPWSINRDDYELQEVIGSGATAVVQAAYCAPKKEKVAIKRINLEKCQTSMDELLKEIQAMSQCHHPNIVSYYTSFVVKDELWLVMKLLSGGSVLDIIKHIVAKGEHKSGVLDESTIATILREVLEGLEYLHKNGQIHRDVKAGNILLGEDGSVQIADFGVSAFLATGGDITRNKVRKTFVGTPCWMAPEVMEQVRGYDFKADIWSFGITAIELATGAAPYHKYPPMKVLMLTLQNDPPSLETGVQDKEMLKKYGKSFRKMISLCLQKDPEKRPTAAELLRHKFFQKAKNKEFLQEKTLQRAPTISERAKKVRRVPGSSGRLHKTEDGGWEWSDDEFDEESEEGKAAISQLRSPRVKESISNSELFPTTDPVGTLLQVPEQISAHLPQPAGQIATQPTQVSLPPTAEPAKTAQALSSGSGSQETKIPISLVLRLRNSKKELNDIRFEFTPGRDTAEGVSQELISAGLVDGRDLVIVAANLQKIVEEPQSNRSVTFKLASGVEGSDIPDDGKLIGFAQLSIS
Serine/threonine-protein kinase 24 (Homo sapiens), sequence (Q9Y6E0 whole entry, looked up): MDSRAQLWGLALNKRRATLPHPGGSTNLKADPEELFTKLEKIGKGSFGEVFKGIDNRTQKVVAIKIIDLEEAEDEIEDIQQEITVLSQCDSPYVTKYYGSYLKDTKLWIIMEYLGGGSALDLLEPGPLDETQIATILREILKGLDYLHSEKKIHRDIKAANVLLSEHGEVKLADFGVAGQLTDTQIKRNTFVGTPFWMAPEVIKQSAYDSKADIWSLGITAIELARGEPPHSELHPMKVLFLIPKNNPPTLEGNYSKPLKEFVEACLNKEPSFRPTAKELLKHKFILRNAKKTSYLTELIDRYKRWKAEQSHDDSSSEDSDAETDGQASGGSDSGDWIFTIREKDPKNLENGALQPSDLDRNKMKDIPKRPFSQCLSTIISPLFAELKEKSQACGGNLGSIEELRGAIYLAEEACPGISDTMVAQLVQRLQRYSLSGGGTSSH
Dual specificity mitogen-activated protein kinase kinase 1 (Homo sapiens), sequence (Q02750 whole entry): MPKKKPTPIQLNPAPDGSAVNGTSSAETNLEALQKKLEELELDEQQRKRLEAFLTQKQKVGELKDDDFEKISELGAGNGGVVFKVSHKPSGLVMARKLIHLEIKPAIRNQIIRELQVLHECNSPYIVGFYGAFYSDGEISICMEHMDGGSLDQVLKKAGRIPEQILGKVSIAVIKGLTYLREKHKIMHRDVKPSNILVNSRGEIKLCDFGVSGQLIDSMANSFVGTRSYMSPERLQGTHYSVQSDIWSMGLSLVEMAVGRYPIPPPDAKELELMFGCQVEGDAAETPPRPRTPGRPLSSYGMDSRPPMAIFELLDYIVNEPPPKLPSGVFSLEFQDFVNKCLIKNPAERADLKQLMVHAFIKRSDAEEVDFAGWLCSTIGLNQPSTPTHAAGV
Serine/threonine-protein kinase pim-1 (Homo sapiens), sequence (P11309 whole entry, looked up, canonical isoform): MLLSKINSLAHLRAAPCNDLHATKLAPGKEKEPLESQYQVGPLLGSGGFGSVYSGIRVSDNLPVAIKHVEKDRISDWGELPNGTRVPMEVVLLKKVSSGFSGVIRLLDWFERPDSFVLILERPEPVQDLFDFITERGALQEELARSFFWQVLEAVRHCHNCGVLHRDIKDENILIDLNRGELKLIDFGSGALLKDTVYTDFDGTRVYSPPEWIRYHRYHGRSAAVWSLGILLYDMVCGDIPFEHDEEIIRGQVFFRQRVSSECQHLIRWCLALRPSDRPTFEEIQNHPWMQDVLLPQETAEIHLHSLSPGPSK
Casein kinase I isoform epsilon (Homo sapiens), sequence (P49674 whole entry, looked up, canonical isoform): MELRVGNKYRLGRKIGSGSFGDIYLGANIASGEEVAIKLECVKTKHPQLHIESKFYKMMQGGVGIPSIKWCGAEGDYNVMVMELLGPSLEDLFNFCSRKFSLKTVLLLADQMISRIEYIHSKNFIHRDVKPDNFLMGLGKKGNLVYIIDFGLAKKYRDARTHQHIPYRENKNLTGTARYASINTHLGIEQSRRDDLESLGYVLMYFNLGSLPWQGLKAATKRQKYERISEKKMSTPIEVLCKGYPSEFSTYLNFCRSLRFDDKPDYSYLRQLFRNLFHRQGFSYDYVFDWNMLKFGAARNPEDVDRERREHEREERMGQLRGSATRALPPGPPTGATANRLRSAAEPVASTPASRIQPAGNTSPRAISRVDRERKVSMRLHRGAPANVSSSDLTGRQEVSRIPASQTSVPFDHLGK

The term inhibition denotes the relative decrease from the control value, in per cent. For `CCC[C@H]1CNCc2c1[nH]c(=O)c(C#N)c2N1CCC2(CC1)CC2`, the inhibition in assay [1] was -3.14%. The delta Tm Staurosporine positive control in assay [2] amounted to 12.7; in assay [3] it was 7.85; in assay [4], 8.41; in [5], 6.3; in assay [6], 6.68; in assay [7], 12.2. Further, the delta Tm Staurosporine positive control in assay [8] is 3.12; in assay [9], 9.89. For the same molecule, the ΔTm in [2] was -1.21; in assay [3], -2.08; in assay [4], -0.0871; in [5] it was -0.252; in [6], -0.324; in [7], -0.108. In addition, the ΔTm in assay [8] was -0.118; in assay [9], -1.15.
For the molecule `CCC[C@@H]1CNCc2c1[nH]c(=O)c(C#N)c2N1CCC2(CC1)CC2`, the inhibition in assay [1] was -5.05%. Also, the delta Tm Staurosporine positive control in [2] came out at 12.7; in assay [3], 7.85; in [4], 8.41; in assay [5] it was 6.3; in [6], 6.68; in assay [7], 12.2. In addition, the delta Tm Staurosporine positive control was determined as 3.12 in assay [8] and 9.89 in [9]. The ΔTm in assay [2] is -1.16; in assay [3], -2.14; in assay [4] it was 0.204; in [5], -0.203; in assay [6], -0.295; in assay [7], -0.124. Besides, the ΔTm was -0.0146 in [8] and -1.01 in assay [9].
